Measured values reported in ChEMBL document CHEMBL1138676, “Liver-selective glucocorticoid antagonists: a novel treatment for type 2 diabetes” (J Med Chem, 2004).

Key:
Progesterone receptor = molecular target: T1, Progesterone receptor (Homo sapiens, UniProt P06401); experiment: Inhibition of human progesterone receptor
T1 sequence (P06401 whole entry): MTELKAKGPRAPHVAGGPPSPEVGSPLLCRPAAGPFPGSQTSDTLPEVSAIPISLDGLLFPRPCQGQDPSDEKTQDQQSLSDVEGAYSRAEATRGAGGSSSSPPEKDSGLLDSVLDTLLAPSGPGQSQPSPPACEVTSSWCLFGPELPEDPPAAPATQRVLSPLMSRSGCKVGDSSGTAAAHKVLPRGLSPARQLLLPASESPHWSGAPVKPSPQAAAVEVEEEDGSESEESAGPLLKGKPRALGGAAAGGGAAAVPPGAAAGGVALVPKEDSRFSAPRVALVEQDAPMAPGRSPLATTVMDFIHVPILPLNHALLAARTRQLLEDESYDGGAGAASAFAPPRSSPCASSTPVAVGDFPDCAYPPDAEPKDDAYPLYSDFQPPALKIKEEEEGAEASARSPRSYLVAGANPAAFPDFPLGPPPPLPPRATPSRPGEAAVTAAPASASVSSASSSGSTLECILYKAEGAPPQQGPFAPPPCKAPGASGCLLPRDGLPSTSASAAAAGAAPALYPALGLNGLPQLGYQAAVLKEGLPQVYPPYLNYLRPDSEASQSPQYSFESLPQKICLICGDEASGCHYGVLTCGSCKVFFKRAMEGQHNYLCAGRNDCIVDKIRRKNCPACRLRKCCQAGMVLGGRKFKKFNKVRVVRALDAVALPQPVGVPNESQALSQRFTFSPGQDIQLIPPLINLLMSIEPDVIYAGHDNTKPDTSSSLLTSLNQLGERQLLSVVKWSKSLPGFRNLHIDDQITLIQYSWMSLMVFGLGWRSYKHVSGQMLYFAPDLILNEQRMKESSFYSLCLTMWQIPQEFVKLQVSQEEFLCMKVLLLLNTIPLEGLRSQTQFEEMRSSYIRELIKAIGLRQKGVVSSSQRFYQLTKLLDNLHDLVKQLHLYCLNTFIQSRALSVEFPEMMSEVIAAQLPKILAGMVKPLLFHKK

Androgen receptor = molecular target: T2, Androgen receptor (Homo sapiens, UniProt P10275)
T2 sequence (P10275 whole entry): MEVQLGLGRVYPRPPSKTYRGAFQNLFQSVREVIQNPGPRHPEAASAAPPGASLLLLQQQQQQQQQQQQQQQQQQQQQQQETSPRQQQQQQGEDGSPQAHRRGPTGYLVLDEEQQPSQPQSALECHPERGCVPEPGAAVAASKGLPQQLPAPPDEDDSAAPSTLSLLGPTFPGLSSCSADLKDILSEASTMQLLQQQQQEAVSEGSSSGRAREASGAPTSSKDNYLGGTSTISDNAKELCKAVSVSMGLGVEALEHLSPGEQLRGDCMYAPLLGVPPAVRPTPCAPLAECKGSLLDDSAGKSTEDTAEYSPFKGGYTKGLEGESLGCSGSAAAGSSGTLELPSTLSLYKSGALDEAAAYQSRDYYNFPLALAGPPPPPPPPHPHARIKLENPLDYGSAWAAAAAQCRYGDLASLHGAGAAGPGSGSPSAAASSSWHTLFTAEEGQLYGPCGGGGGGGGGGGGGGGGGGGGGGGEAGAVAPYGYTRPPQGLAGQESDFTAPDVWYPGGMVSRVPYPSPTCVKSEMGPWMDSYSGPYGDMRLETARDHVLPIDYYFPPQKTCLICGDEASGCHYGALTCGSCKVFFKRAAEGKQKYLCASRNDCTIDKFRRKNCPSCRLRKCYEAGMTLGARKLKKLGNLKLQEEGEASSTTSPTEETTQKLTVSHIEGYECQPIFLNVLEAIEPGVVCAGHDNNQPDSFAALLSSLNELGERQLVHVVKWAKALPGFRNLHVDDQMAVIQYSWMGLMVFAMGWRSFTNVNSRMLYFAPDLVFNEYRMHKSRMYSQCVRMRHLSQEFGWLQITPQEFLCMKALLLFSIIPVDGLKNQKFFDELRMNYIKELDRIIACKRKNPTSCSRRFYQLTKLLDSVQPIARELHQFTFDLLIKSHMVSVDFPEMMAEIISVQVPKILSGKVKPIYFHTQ
Description: Inhibition of human androgen receptor

[1] = molecular target: T3, Mineralocorticoid receptor (Homo sapiens, UniProt P08235)
T3 sequence (P08235 whole entry): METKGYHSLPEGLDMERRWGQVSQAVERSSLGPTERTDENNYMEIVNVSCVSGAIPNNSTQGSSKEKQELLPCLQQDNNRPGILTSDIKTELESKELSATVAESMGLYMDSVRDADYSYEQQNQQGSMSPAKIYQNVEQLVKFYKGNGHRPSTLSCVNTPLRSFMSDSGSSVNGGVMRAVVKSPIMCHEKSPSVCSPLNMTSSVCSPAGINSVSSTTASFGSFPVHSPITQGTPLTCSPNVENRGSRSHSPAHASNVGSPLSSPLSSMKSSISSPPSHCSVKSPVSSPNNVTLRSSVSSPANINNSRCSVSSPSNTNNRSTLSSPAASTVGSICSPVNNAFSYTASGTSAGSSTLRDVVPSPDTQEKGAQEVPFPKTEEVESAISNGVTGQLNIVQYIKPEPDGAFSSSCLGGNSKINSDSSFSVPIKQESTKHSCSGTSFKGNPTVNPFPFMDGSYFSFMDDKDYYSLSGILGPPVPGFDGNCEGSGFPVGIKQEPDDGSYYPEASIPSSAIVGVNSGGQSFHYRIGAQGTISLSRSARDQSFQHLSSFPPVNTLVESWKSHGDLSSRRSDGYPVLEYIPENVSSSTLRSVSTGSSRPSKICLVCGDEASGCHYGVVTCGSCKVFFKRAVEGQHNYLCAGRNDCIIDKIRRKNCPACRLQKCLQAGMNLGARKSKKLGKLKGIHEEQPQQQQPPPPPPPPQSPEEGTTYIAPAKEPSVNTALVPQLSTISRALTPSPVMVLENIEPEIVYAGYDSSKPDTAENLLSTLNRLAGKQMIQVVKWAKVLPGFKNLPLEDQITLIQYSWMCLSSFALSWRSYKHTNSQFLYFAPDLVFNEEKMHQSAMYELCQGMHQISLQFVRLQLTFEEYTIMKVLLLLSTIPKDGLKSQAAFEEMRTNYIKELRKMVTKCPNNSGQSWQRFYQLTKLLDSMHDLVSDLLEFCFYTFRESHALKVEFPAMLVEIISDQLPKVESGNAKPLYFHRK
Description: Inhibition of human Mineralocorticoid receptor

[2] = Inhibitory activity of the Compound against rat lymphocytes

Ki (Progesterone receptor): 0.39 nM
Ki (Androgen receptor): 6.2 nM
Ki [1]: > 1000 nM
Structure (SMILES): C#C[C@]1(O)CC[C@H]2[C@@H]3CCC4=CC(=O)CCC4=C3[C@@H](c3ccc(N(C)CCNC(=O)OC4CC[C@@]5(C)[C@@H](C4)C[C@@H](O)[C@@H]4[C@@H]5C[C@H](O)[C@]5(C)[C@@H]([C@H](C)CCC(=O)O)CC[C@@H]45)cc3)C[C@@]21C (some centres undefined)
Inhibition [2]: 14%
